Assay results: ChEMBL document CHEMBL2176928, “Discovery of novel inhibitors of amyloid β-peptide 1-42 aggregation” (J Med Chem, 2012)
Calls of active or inactive are those of the source. No cut-off for these calls is given here.

Columns and labels:
[1] = Elongation of aggregates of GFP-fused amyloid beta (1 to 42) expressed in Podospora anserina extract assessed as reduction of amyloid beta SDS-resistant oligomers after 1 hr by SDS-PAGE and Western blot analysis
[2] = Inhibition of aggregation of GFP-fused amyloid beta (1 to 42) expressed in Podospora anserina assessed as reduction of amyloid beta SDS-resistant oligomers at 50 uM after 24 hrs by SDS-PAGE and Western blot analysis
[3] = Toxicity in Podospora anserina expressing GFP-fused amyloid beta (1 to 42) assessed as effect on lifespan and growth rate of fungi at 50 uM
[4] = system: Saccharomyces cerevisiae; test: Toxicity in yeast harboring erg6delta expressing human DHFR-fused amyloid beta (1 to 42) at 100 uM; format: organism-based; conditions: in vivo
[5] = Cytotoxicity against human HeLa cells after 24 hrs by XTT assay; format: cell-based
[6] = Lipophilicity, log P of the compound; format: physicochemical; conditions: octanol/water
[7] = Inhibition of aggregation of amyloid beta (17 to 40) assessed as fibril formation at 100 uM measured up to 24 hrs by transmission electron microscopic analysis
[8] = Inhibition of aggregation of amyloid beta (17 to 40) assessed as fibril formation at 100 uM measured up to 10 hrs by turbidimetry assay
[9] = Inhibition of aggregation of amyloid beta (17 to 40) assessed as fibril formation at 100 uM measured up to 13 hrs by high throughput thioflavin-T binding assay
[10] = Inhibition of aggregation of GFP-fused amyloid beta (1 to 42) expressed in Podospora anserina assessed as reduction of amyloid beta SDS-resistant oligomers at 50 uM after 10 hrs to 5 days by SDS-PAGE and Western blot analysis
[11] = Inhibition of aggregation of GFP-fused amyloid beta (1 to 42) expressed in Podospora anserina assessed as reduction of amyloid beta SDS-resistant oligomers at 100 uM after 24 hrs by SDS-PAGE and Western blot analysis
[12] = Toxicity in Podospora anserina expressing GFP-fused amyloid beta (1 to 42) assessed as effect on lifespan and growth rate of fungi at 100 uM
[13] = target: Amyloid-beta precursor protein (Homo sapiens) (UniProt P05067); test: Inhibition of aggregation of human DHFR-fused amyloid beta (1 to 42) expressed in yeast harboring erg6delta assessed as increase in yeast viability measured up to 20 hrs in presence of MTX
Chain of Amyloid-beta precursor protein (Homo sapiens) (P05067 whole entry, the tested form may be a part): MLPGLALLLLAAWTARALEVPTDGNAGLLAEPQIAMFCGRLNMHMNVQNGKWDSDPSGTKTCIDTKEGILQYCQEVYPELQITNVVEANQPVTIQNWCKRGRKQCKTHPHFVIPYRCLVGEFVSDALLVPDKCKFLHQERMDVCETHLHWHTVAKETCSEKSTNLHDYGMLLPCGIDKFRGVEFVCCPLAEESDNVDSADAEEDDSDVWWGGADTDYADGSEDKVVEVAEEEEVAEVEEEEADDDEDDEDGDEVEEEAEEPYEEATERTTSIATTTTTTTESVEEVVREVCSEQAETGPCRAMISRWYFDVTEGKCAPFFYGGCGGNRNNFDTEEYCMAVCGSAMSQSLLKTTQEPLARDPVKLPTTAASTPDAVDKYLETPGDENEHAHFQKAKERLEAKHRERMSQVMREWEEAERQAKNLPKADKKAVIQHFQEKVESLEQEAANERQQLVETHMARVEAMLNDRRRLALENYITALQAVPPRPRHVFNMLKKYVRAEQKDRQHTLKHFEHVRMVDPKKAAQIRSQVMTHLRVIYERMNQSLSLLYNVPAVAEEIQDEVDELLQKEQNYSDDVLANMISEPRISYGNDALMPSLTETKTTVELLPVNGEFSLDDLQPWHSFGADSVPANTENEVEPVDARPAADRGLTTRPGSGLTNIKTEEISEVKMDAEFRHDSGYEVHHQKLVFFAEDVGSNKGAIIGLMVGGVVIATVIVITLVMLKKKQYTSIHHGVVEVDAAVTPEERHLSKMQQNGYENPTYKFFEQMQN

[14] = target: Amyloid-beta precursor protein (Homo sapiens) (UniProt P05067); test: Inhibition of aggregation of human DHFR-fused amyloid beta (1 to 42) expressed in yeast harboring erg6delta assessed as increase in yeast viability at 10 uM measured up to 20 hrs in presence of MTX
[15] = system: Saccharomyces cerevisiae; test: Toxicity in yeast harboring erg6delta expressing human DHFR-fused amyloid beta (1 to 42) at 10 uM; format: organism-based; conditions: in vivo

| SMILES | Activity [1] | inhibition [2] | Activity [3] | Activity [4] | MCC at 24 h [5] [µM] | logP [6] | inhibition [7] | inhibition [8] | inhibition [9] | inhibition [10] | inhibition [11] | Activity [12] | inhibition [13] | inhibition [14] | Activity [15] |
| --- | --- | --- | --- | --- | --- | --- | --- | --- | --- | --- | --- | --- | --- | --- | --- |
| Nc1c(S(=O)(=O)c2ccc(Cl)cc2)cnc2cc(-c3ccccc3)nn12 | inactive | inactive | Non-toxic | Toxic | 22 | 3.3 | Active | Active | Active |  |  |  |  |  |  |
| Cc1nc2sc3c(c2c(=O)o1)CCCC3 | inactive |  |  |  | 184 | 2.8 | Active | Active | Active | Active | inactive | Toxic | Dose-dependent effect | Active |  |
| CCCCC(CC)CNC(=N)NC(=N)NCCCCCCNC(=N)NC(=N)NCC(CC)CCCC.Cl.Cl (configuration not stated) [ALEXIDINE DIHYDROCHLORIDE] |  |  |  |  | 2 |  | Active | Active | Active |  |  |  |  |  | Toxic |
| O=S(=O)(Nc1ccc(N2CCCCC2)cc1)c1cc(Cl)sc1Cl | inactive | Active | Non-toxic |  | 17 | 3.9 | Active | Active | Active | Active |  |  | Dose-dependent effect | Active |  |
| O=C(Nc1ccccc1)Nc1ccc(Cl)cc1[N+](=O)[O-] | inactive | inactive | Toxic | Toxic | 20 | 3.7 | Active | Active | Active | Active |  |  |  | Active |  |
